Measured values as given in patent US20030130698A1, “Method for screening therapeutic agents for modulation of ejaculatory response” (priority 2002, published 2003).

Assays:
[1] = system: male mice; assay: Electroejaculation test after oral administration of diarylmethylpiperazine compounds (35 Hz, 3 to 8 volts); type: in vivo, mouse; details: for Effective Dose: oral administration, stimulation about 20 minutes after dosing, 3 to 8 volts in 0.5 volt increments; for Ejaculation Inhibition %: relative to control group, at the effective dose of the same line, oral, about 20 minutes after dosing, 3 to 8 volts
Method: (§1) Male, CD-1 mice (20-30 g) were housed in groups of ten (10) in Plexiglas® chambers with food and water available before any procedure. Animals were maintained on a 12 hour light/dark cycle in a temperature-controlled animal colony. Studies were carried out in accordance with the Guide for the Care and Use of Laboratory animals as adopted and promulgated by the National Institutes of Health.
(§2) Specifically, the bipolar electrode probe is an approximately 5 cm long tube having an outer diameter of approximately 0.2388 cm with an inner diameter of approximately 0.0787 cm and a wall thickness of […].
A testing mouse was restrained in a cone bag with rear legs extending from the bag. Excess fecal matter was removed from the rectum and a lubricated bipolar electrode was inserted approximately […] into the rectum. An oscillating current of 40 Hz was utilized for electrical stimulation starting at 3 volts with a gradual increase to 8 volts by increments of 0.5 volts, as shown in Table 1. The stimulation regime included 4 stimulating events for each voltage lasting 2 seconds with a rest period of 2 seconds between stimulating events. A white coagulum ejaculate from the penis indicated a successful ejaculation. If ejaculation occurred before reaching the 8 volt terminal voltage, the testing was stopped.
Further testing was conducted on a multiple diarylmethylpiperazine compounds according to the testing procedure setforth above wherein the stimulating protocol comprised multiple operating cycles of alternating stimulation periods and rest periods during which the operating voltage of each operating cycle increased in comparison with that of the immediately preceding operating cycle. Electroejaculation stimulation was conducted at 35 Hz oscillating frequency, starting at 3 volts with a gradual increase to 8 volts by increments of 0.5 volts and occurred about 20 minutes after oral administration. The results, showing ejaculation inhibition relative to that of the control group, are compiled in Table 2.

[2] = molecular target: delta opioid receptor (Homo sapiens, UniProt P41143); details: delta opioid receptor agonist versus mu opioid receptors; cited from earlier work
[3] = system: male mice; assay: Electroejaculation test after subcutaneous SNC-80 (40 Hz, 3 to 8 volts); type: in vivo, mouse; details: terminal voltage 8 volts, FIG. 3
Method: as §1, §2
SNC-80 was dissolved in 5% dextrose injection solution. Equal molar of HCL was added when the manufacturer packaged the compound in a base form. The placebo was prepared in a similar manner without the test drug 10 minutes after the injection, the test mouse was subjected to electrostimulation. Ten mice were tested for each dose level, the order of each mouse receiving different doses was blinded and in a random manner.
A testing mouse was restrained in a cone bag with rear legs extending from the bag. Excess fecal matter was removed from the rectum and a lubricated bipolar electrode was inserted approximately 2.5 into the rectum. […]

[4] = system: mouse vas deferens smooth muscle; details: in vitro; cited from earlier work

Chain of delta opioid receptor (P41143 whole entry): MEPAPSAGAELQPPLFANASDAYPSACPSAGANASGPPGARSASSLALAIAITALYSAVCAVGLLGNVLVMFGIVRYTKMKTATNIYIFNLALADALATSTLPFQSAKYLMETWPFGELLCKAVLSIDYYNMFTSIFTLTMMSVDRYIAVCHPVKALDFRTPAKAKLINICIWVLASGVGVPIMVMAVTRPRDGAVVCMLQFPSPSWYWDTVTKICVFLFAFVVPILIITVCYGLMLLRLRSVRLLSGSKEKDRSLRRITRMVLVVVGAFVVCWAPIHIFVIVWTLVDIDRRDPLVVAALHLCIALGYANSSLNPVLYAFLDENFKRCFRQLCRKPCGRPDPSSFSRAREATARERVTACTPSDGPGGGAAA

CCN(CC)C(=O)c1ccc([C@H](c2cccc(O)c2)N2C[C@@H](C)N(CC3CC3)C[C@@H]2C)cc1 [4-(alpha-R)-alpha-((2S,5R)-4-(Cyclopropylmethyl)-2,5-dimethyl-1-piperazinyl)-3-hydroxybenzyl)-N,N-diethylbenzamide]
Effective Dose [1]: 0.3 mg/kg | Ejaculation Inhibition % [1]: 60%

CCN(CC)C(=O)c1ccc([C@H](c2cccc(OC)c2)N2C[C@@H](C)N(Cc3ccccc3)C[C@@H]2C)cc1 [4-(alpha-R)-alpha-((2S,5R)-4-Benzyl-2,5-dimethyl-1 piperazinyl)-3-methoxybenzyl)-N,N-diethylbenzamide]
Effective Dose [1]: 3 mg/kg | Ejaculation Inhibition % [1]: 33%

C=CCN1C[C@H](C)N([C@H](c2ccc(C(=O)N(CC)CC)cc2)c2cccc(OC)c2)C[C@H]1C [SNC-80, (+)-4-[(αR)-α-((2S,5R)-4-Allyl-2,5-dimethyl-1-piperazinyl)-3-methoxybenzyl]-N,N-diethyl benzamide]
selectivity over mu opioid receptors [2]: 2000 fold | inhibitory effect on ejaculation at reduced dose ([3]; 0.1 mg/kg subcutaneous): inhibitory effect diminished | occurrence of ejaculation compared to control group ([3]; 1 mg/kg subcutaneous): significantly reduced the occurrence of ejaculation | contraction of mouse vas deferens smooth muscle [4]: block the contraction

C=CCN1C[C@H](C)N([C@H](c2ccc(C(=O)N(CC)CC)cc2)c2cccc(OCC(=O)O)c2)C[C@H]1C [3-((alpha-R)-alpha-((2S,5R)-4-Allyl-2,5-dimethyl-1-piperazinyl)-4-(diethylamino-carbonyl)benzyl)phenoxyacetic acid]
Effective Dose [1]: 0.01 mg/kg | Ejaculation Inhibition % [1]: 45%

CCN(CC)C(=O)c1ccc([C@@H](c2ccccc2)N2C[C@H](C)N(Cc3cccc(F)c3)C[C@H]2C)cc1 [4-((alpha-R)-alpha-((2R,5 S)-2,5-Dimethyl-4-(3-fluorobenzyl)-1-piperazinyl)benzyl)-N,N-diethylbenzamide]
Effective Dose [1]: 0.4 mg/kg | Ejaculation Inhibition % [1]: 75%

CCN(CC)C(=O)c1ccc([C@H](c2cccc(O)c2)N2C[C@@H](C)N(Cc3cccc(F)c3)C[C@@H]2C)cc1 [4-((alpha-R)-alpha-((2S,5R)-2,5-Dimethyl-4-(3-fluorobenzyl)-1-piperazinyl)-3-hydroxybenzyl)-N,N-diethylbenzamide]
Effective Dose [1]: 3 mg/kg | Ejaculation Inhibition % [1]: 60%

CCN(CC)C(=O)c1ccc([C@H](c2cccc(OC)c2)N2C[C@@H](C)N(Cc3ccc(F)cc3)C[C@@H]2C)cc1 [4-((alpha-R)-alpha-((2S,5R)-2,5-Dimethyl-4-(4-fluorobenzyl)-1-piperazinyl)-3-methoxybenzyl)-N,N-diethylbenzamide]
Effective Dose [1]: 3 mg/kg | Ejaculation Inhibition % [1]: 38%

CCN(CC)C(=O)c1ccc([C@H](c2cccc(OC)c2)N2C[C@@H](C)N(Cc3ccccc3F)C[C@@H]2C)cc1 [4-((alpha-R)-alpha-((2S,5R)-2,5-Dimethyl-4-(2-fluorobenzyl)-1-piperazinyl)-3-methoxybenzyl)-N,N-diethylbenzamide]
Effective Dose [1]: 10 mg/kg | Ejaculation Inhibition % [1]: 50%

C=CCN1C[C@@H](C)N([C@H](c2ccc(S(=O)(=O)N(C)C)cc2)c2cccc(O)c2)C[C@@H]1C [4-[(R)-((2R,5S)-4-Allyl-2,5-diimethylpiperazin-1-yl)(3-hydroxyphenyl)methyl]-N,N-dimethylbenzenesulfonamide]
Effective Dose [1]: 0.3 mg/kg | Ejaculation Inhibition % [1]: 50%

CCN(CC)C(=O)c1ccc([C@H](c2ccccc2)N2C[C@@H](C)N(Cc3ccc(O)cc3)C[C@@H]2C)cc1 [4-((alpha-S)-alpha-((2S,5R)-2,5-Dimethyl-4-(4-hydroxybenzyl)-1-piperazinyl)-benzyl)-N,N-diethylbenzamide]
Effective Dose [1]: 3 mg/kg | Ejaculation Inhibition % [1]: 50%

CCN(CC)C(=O)c1ccc([C@H](c2cccc(OCC(=O)O)c2)N2C[C@@H](C)N(Cc3ccccc3)C[C@@H]2C)cc1 [3-((alpha-R)-alpha-((2S,5R)-4-Benzyl-2,5-dimethyl-1-piperazinyl)-4-(diethylaminocarbonyl)benzyl)phenoxyacetic acid]
Effective Dose [1]: 3 mg/kg | Ejaculation Inhibition % [1]: 66%
